Test [1] relates to PC-3. Briefly: Cytotoxicity against human PC3 cells after 4 days by sulforhodamine B assay. The test is classed as functional, cell-based. Particulars: PC-3, 96 h. In general terms: The SRB assay estimates cell density from bound dye.
Test [2] can be described thus: Ratio of compound ED50 to paclitaxel ED50 for inhibition of tubulin assembly.
The nature of test [3]: Effect on tubulin polymerization at 50 uM by cold-induced disassembly assay.
Test [4] concerns A2780. Briefly: Ratio of compound IC50 to paclitaxel IC50 for cytotoxic activity against human A2780 cells. It counts as functional.
Test [5] concerns PC-3. The experiment in a line: Ratio of compound IC50 to paclitaxel IC50 for cytotoxic activity against human PC3 cells. It counts as functional.
A short description of test [6]: Inhibition of tubulin assembly.
Test [7] deals with A2780. The experiment in a line: Cytotoxicity against human A2780 cells after 4 days by sulforhodamine B assay. The test is classed as functional, cell-based. To be noted: A2780, 96 h.
Test [8] is described as follows: Ratio of paclitaxel Kd to compound Kd for displacement of fluorescent N-AB-PT from tubulin.
Test [9] can be described thus: Displacement of fluorescent N-AB-PT from tubulin by spectrofluorimetry.
In the next test the test system is P388. Briefly: Ratio of docetaxel to compound in cytotoxic activity against mouse P388 cells. The test is classed as functional.

Each structure is given as a SMILES string. Calls of active or inactive are those of the source. The rule behind the calls is not given here.

Broadly, the IC50 is the midpoint of a concentration-inhibition curve. Regarding `CC(=O)O[C@H]1C(=O)[C@@]2(C)[C@H]([C@H](OC(=O)c3ccccc3)[C@]3(O)C[C@H](OC(=O)[C@H](O)[C@H]4NC(=O)Oc5ccccc54)C(C)=C1C3(C)C)[C@]1(OC(C)=O)CO[C@@H]1C[C@@H]2O`, the values for the IC50 in the test on PC-3 [1] and in the test with A2780 [7] were greater than 5000 nM and greater than 20000 nM, respectively. Besides, in [2], the Ratio ED50 worked out at 50. The result in [3] was inactive. In addition, the “Ratio IC50” value in the test with A2780 [4] and in the test with PC-3 [5] was 1900 each time. The ED50 in [6] was greater than 25000 nM. Also, in test [8], the Ratio came to 150.

In the case of `CC(=O)O[C@H]1C(=O)[C@@]2(C)[C@H]([C@H](OC(=O)c3ccccc3)[C@]3(O)C[C@H](OC(=O)[C@H](O)[C@@H](NC(=O)c4ccccc4)c4ccccc4)C(C)=C1C3(C)C)[C@]1(OC(C)=O)CO[C@@H]1C[C@@H]2O` [PACLITAXEL], in test [9], the Ka amounted to 4.76e+07 M⁻¹. For the same compound, in the test on PC-3 [1], the IC50 came out at 1.4 nM. For the same compound, the ED50 in test [6] was determined as 480 nM.

For `CC(=O)O[C@H]1C(=O)[C@@]2(C)[C@H]([C@H](OC(=O)c3ccccc3)[C@@]3(O)C[C@@H](OC(=O)[C@@H](O)[C@@H](NC(=O)c4ccccc4)c4ccccc4C)C(C)=C1C3(C)C)[C@@]1(OC(C)=O)CO[C@@H]1C[C@@H]2O` (stereo in doubt), the Ratio ED50 in [2] worked out at 5.1.

`COC(=O)N[C@@H](c1ccccc1)[C@@H](O)C(=O)O[C@H]1C[C@@]2(O)[C@@H](OC(=O)c3ccccc3)[C@@H]3[C@]4(OC(C)=O)CO[C@@H]4C[C@H](O)[C@@]3(C)C(=O)[C@H](OC(C)=O)C(=C1C)C2(C)C` came in with a Ka in test [9] of 1.11e+07 M⁻¹. Moreover, the results for the IC50 in the test on PC-3 [1] and in the test on A2780 [7] were 2 nM and 9 nM, respectively. Besides, in the test on P388, the Ratio is reported as 150. Moreover, the ED50 in test [6] came to 430 nM.
